Values of other authors as cited in the CATMoS acute toxicity set (Mansouri et al. 2021).
Values joined by “and” are separate entries in the source; they are usually repeats but may differ in a detail not shown here. Identical values can stand only once.

Assay: rat acute oral toxicity
Details: in vivo

Compound	LD50
O=C1OCC(CCl)O1 (configuration not stated)	80 mg/kg
CCCOc1c(Cl)c(Cl)c(Cl)c(Cl)c1Cl	430 mg/kg
O=C(O)C1CSCN1 (configuration not stated)	875 mg/kg
CCOC(C1=NCC(OC)CN1)c1ccccc1 (configuration not stated)	875 mg/kg
O=C1c2ccccc2C(=O)N1SC1CCCCC1	2600 mg/kg
COP(=O)(OC)OC(=C(Cl)Cl)c1ccc(Cl)cc1Cl	109 mg/kg
CCOC(N)=C1Sc2ccccc2C1=O	4000 mg/kg
CC=C1CC(C)C(C)(O)C(=O)OCC2=CCN3CCC(OC1=O)C23 (configuration not stated)	85 mg/kg
C=CCNC(N)=S	200 mg/kg
c1cc(OCC2CO2)ccc1CC1CO1 (configuration not stated)	4290 mg/kg
CCCCCCCCOP(=O)(O)OCCC(Cl)Cl	10300 mg/kg
CC1Oc2ccccc2CC1N(C)C (configuration not stated)	812 mg/kg
C#CCN(C)Cc1ccccc1	250 mg/kg and 300 mg/kg
COC(=O)Cc1ccccc1	2550 mg/kg
CCOc1ccccc1N1CCN(CCCCc2ccc3c(c2)CCC(=O)N3)CC1	500 mg/kg
CCCn1cnc2c1c(=O)n(CCCCC(C)=O)c(=O)n2C	940 mg/kg
COS(C)(=O)=O	225 mg/kg
CCN(CC)CCOC(=O)c1ccc(N)cc1	200 mg/kg
Cc1ccccc1C(C)C	2130 mg/kg
O=S(=O)(O)CO	3200 mg/kg
Cc1cc(-c2ccccc2)n[nH]1	1800 mg/kg
Cc1ccc(C2(O)CCN(CCCC(=O)c3ccc(F)cc3)CC2)cc1	152 mg/kg
CCC(c1ccccc1)c1noc(CCN(CC)CC)n1 (configuration not stated)	1400 mg/kg
CCN(CCNS(C)(=O)=O)c1ccc(N)c(C)c1	400 mg/kg

Compound	LD50
COc1cc2c(cc1OC)C(c1ccc(N)cc1)=NN=C(C)C2	128 mg/kg
COc1ccc(C(=O)CCC(=O)O)c2c(C)c(C)oc12	2180 mg/kg
C#CCN(C)CCCOc1ccc(Cl)cc1Cl	210 mg/kg
Cc1nccnc1SCc1ccco1	1000 mg/kg
C1=CCC(C2OCC3(CC=CCC3)CO2)CC1 (configuration not stated)	5190 mg/kg
CC[N+](CC)(CC(=O)Nc1c(C)cccc1C)Cc1ccccc1	584 mg/kg
CCCC(=O)C1c2cccc(O)c2C(=O)c2c(O)cccc21	1580 mg/kg
COP(=S)(OC)Oc1cc(C)ccc1C(C)C	750 mg/kg
CCO[Si](CCCC#N)(OCC)OCC	4920 mg/kg
CCCCCOc1cccc(NC(=O)O[C@@H]2CCCC[C@H]2N2CCCC2)c1	1030 mg/kg
N#CCc1ccc(Cl)cc1	50 mg/kg
C=C(/C=C/C)C1=C(C)CCCC1(C)C	2920 mg/kg
O=[N+]([O-])c1cc(C(F)(F)F)ccc1Cl	1080 mg/kg
CCCCC(CC)C(=O)OCCOCCOCCOC(=O)C(CC)CCCC (configuration not stated)	31000 mg/kg
CCS(=O)CC(C)SP(=O)(OC)OC (configuration not stated)	89 mg/kg
O=[N+]([O-])c1ccccc1-c1ccccc1	1230 mg/kg
CC(O)CN(CC(C)O)c1nc(Nc2ccc(C=Cc3ccc(Nc4nc(Nc5cc(S(=O)(=O)O)ccc5S(=O)(=O)O)nc(N(CC(C)O)CC(C)O)n4)cc3S(=O)(=O)O)c(S(=O)(=O)O)c2)nc(Nc2cc(S(=O)(=O)O)ccc2S(=O)(=O)O)n1 (configuration not stated)	12100 mg/kg
CCSC(=O)Oc1c(C(C)CC)cc([N+](=O)[O-])cc1[N+](=O)[O-] (configuration not stated)	147 mg/kg
FC(F)(F)c1nc2c(Cl)ccc(Cl)c2[nH]1	2.61 mg/kg
CCOP(=O)(OCC)SC	47.1 mg/kg
COc1ccc(OC)c(NC(=O)CNC(=O)Cc2ccc(C(=O)c3ccc(C)cc3)n2C)c1	1470 mg/kg
CC(O)Cn1cnc2c1c(=O)n(C)c(=O)n2C (configuration not stated)	460 mg/kg
O=C(Nc1ccc(Br)cc1)c1cc(Br)cc(Br)c1O	410 mg/kg
Oc1cc2nc(C(F)(F)F)[nH]c2cc1Cl	55.5 mg/kg

Compound	LD50
CCC1(C)Oc2cccc(OC(=O)NC)c2O1 (configuration not stated)	25 mg/kg
O=C(NCCc1ccc(O)cc1)c1cccnc1	8500 mg/kg
CCOc1ccc(/C=C2\NCCc3cc(OCC)c(OCC)cc32)cc1OCC	540 mg/kg
CCCCCCS	1250 mg/kg
O=C(O)c1c(Cl)c(Cl)c(Cl)c(Cl)c1C1c2cc(Br)c(O)c(Br)c2Oc2c1cc(Br)c(O)c2Br	8400 mg/kg
CC(C)[N+](C)(CCOC(=O)C1c2ccccc2Oc2ccccc21)C(C)C	370 mg/kg
CCN1CC2CN(C)CC(C1)C2OC(=O)c1ccc(Cl)cc1 (configuration not stated)	200 mg/kg
CC1(C)CC(=O)C(N)C(C)(C)N1 (configuration not stated)	920 mg/kg
NC(=O)OCCCc1ccccc1	1110 mg/kg
N=c1ccn(O)cc1	75 mg/kg
CCC(=O)c1ccc(OCC(O)CO)c(OC)c1 (configuration not stated)	1640 mg/kg
CCOC(=O)c1cnn(C)c1-n1c(CC)nc2ccccc2c1=O	1820 mg/kg
CCOc1c(N2CCOCC2)cnn(C)c1=O	1900 mg/kg
CCC(C)(C)c1ccc2c(c1)C(=O)c1ccccc1C2=O	1600 mg/kg
O=S1OCC2C(CO1)C1(Cl)C(Cl)=C(Cl)C2(Cl)C1(Cl)Cl (configuration not stated)	240 mg/kg
OCCN1CCCCC1	1500 mg/kg
CO[C@@H]1[C@@H](O)[C@@H](O)[C@H](O[C@@H]2C=C3CC[C@@H]4[C@H](CC[C@]5(C)[C@@H](c6ccc(=O)oc6)CC[C@]45O)[C@@]3(C)CC2)O[C@H]1C	79 mg/kg
CCOP(=S)(OCC)SC(CCl)N1C(=O)c2ccccc2C1=O (configuration not stated)	5 mg/kg
CCC(C)c1ccc(Cl)c(OC(=O)NC)c1 (configuration not stated)	50 mg/kg
COC(=O)C=C(C)N	1760 mg/kg
C=CN(CC)N=O	88 mg/kg
CCNP(=S)(OC)Oc1cc(Cl)c(Cl)cc1Cl (configuration not stated)	450 mg/kg
Cc1cc(C(=O)NNCc2ccccc2)no1	280 mg/kg
CCCCC(CC)(COC(N)=O)COC(N)=O	662 mg/kg
